Numbers after ± are expanded uncertainties.
Columns and labels:
[1] = Molar enthalpy of transition or fusion; conditions: Crystal; DSC
[2] = Crystal; DTA

- Molar enthalpy of transition or fusion [1]: 12 ± 0.335 kcal/mol
- Normal melting temperature [2]: 195.62 ± 0.5 °C
Compound: CCc1ccc(CCOc2ccc(CC3SC(=O)NC3=O)cc2)nc1.Cl (configuration not stated)

Reference: the NIST ThermoML archive (doi:10.1016/j.fluid.2013.05.008)
